Measurements as given in patent publication US20030124643A1, “Method and kit forrapid concurrent identification and antimicrobial susceptibility testing of microorganisms from broth culture” (priority 2001, published 2003).

Legend:
[1] = system: E. coli; assay: Kit plate disk-quarter diffusion AST, mixed culture; assay type: cell-based; details: mixed culture with Staph. aureus, Cephalothin chamber 70', region confirmed by gram stain, FIG. 37
Source text: (§1) FIGS. 37A to 37C illustrates the growth of two microorganisms, Staph. aureus and E. coli, on the same preferred embodiment kit plate. FIGS. 37B and 37C are two different views of an enlargement of the AST test chambers (67′-70′ and 72′-75′). FIG. 37B viewed with back lighting. FIG. 37C viewed with front lighting. Two AST test chambers are featured in these figures: Mueller Hinton agar plus antimicrobial Cephalothin chamber 70′ and Mueller Hinton agar plus antimicrobial Enrofloxicin chamber 73′. Two margins are observable in each chamber: E coli & cephalothin margin 180 and Staph. aureus & cephalothin margin 181 for Cephalothin chamber 70′; and Staph. aureus & Enrofloxicin margin 182 and E. coli & Enrofloxicin margin 183 for Enrofloxicin chamber 73′. The region 176A is between the E. coli margin 180 and Staph. aureus margin 181 in Cephalothin chamber 70′. The region 178A is between the Staph. aureus margin 182 and the E. coli margin 183 in Enrofloxicin chamber 73′. Illustrated in FIG. 38 are two gram stains 176B and 178B of a sample from regions 176A and 178A respectively.
(§2) […] of this dilution is added per chamber. FIG. 17 illustrates the first chamber of the top two rows inoculated using dilution 140. Eighty micro liters of dilution 140 is added per chamber to the ten upper test chambers. […]

[2] = system: Staph. aureus; assay: as above; assay type: cell-based; details: mixed culture with E. coli, Enrofloxicin chamber 73', region confirmed by gram stain, FIG. 37
Source text: as §1, §2

SMILES | AST result in growth region 176A, between margins 180 and 181 [1] | AST result in growth region 178A, between margins 182 and 183 [2]
CC(=O)OCC1=C(C(=O)O)N2C(=O)[C@@H](NC(=O)Cc3cccs3)[C@H]2SC1 [Cephalothin] | resistance | –
CCN1CCN(c2cc3c(cc2F)c(=O)c(C(=O)O)cn3C2CC2)CC1 [Enrofloxicin] | – | resistance
